The source of these data is patent US20140213583A1, “PI3K Inhibitor for Use in the Treatment of Bone Cancer or for Preventing Metastatic Dissemination Primary Cancer Cells into the Bone” (NOVARTIS AG, priority 2011, published 2014).

“Also recorded” adds a separate entry of the source. A value given as a limit tells only on which side of the number the result lay.

The conditions of data set [1]: from reference (8); cited from earlier work.
Data set [2] concerns 453-EGFP cells (MDA-MB-453 human breast cancer cells expressing EGFP). Description: Metastasis therapy with Compound A in Rag2-/-;Il2rg-/- mice challenged i.v. with 453-EGFP cells. It counts as in vivo. Conditions: 50 mg/kg per os daily. The text has this:
Rag2^−/−;Il2rg^−/− breeders were kindly given by Drs. T. Nomura and M. Ito of the Central Institute for Experimental Animals (Kawasaki, Japan). Mice were then bred in our animal facilities under sterile conditions. Athymic Crl:CD-1-Foxn1^nu/nu mice (referred to as nude mice) were purchased from Charles River Italy and kept under sterile conditions. Experiments were authorized by the institutional review board of the University of Bologna and done according to Italian and European guidelines.
MDA-MB-453 and BT-474 breast cancer cell lines were originally obtained from by Dr. Serenella M. Pupa (Istituto Nazionale dei Tumori, Milan, Italy). Cell lines were authenticated by DNA fingerprinting on the 11 Nov. 2010 (performed by DSMZ, Braunschweig, Germany). Cells were routinely cultured in Roswell Park Memorial Institute (RPMI) medium supplemented with 10% foetal bovine serum and were maintained at 37° C. in a humidified 5% CO2 atmosphere. All medium constituents were purchased from Invitrogen, Milan, Italy. In order to visualize metastatic cells/lesions, breast cancer cell lines were transfected with a plasmid expressing Enhanced Green Fluorescent Protein (pEGFP-N1, Clontech, Mountain View, Calif.) using Lipofectamine 2000 (Invitrogen). Stable transfectants were selected using G418 (Invitrogen). EGFP expression was monitored by fluorescence microscopy and quantified by cytofluorimetric analysis.
Nine-20-week-old female Rag2^−/−;Il2rg^−/− mice were used throughout this work. Local tumors were induced with 10^7 viable human tumour cells injected either subcutaneously in the right hind leg or in the fat pad of the fourth (abdominal) left mammary gland in 0.2 ml of PBS. Tumor diameters were periodically measured with digital calipers and tumor volumes calculated as […], where a=maximal tumor diameter and b=major tumor diameter perpendicular to a. For intravenous (i.v.) administrations, 2×10^6 cells in 0.4 ml PBS were injected in a tail vein. Nude mice (5-6 week-old) were treated i.v. with anti-asialo GM1 antiserum (Wako, Dusseldorf, Germany), 0.4 ml of a 1:30 dilution in PBS, to deplete NK activity, 24 h prior to the injection of human tumour cells. Pilot experiments were performed to assess for each cell line the time at which experimental metastases could be detected.
Tumor-bearing mice were sacrificed at various times (see Results), depending on tumor and metastasis growth, and were subjected to an accurate necropsy. Lungs were stained with black India ink to better outline metastases and fixed in Fekete's solution. Lung and liver metastases were counted using a dissection microscope. When EGFP-expressing cells were injected, whole mice and dissected organs were carefully examined using a Lightools imaging system (Lightools Research, Encinitas, Calif.) to detect fluorescent metastatic deposits. Quantification of metastatic load in brain and bone marrow was performed by immunofluorescence followed by cytofluorimetric analysis and by Real-Time PCR. Brain was minced with scissors and passed through a 70 μm cell strainer (Becton Dickinson, Bedford, Mass., USA) to obtain a homogeneous cell suspension. Bone marrow was flushed from both femurs in PBS and filtered through a 70 μm strainer. A mouse monoclonal antibody against human HER-2 (clone Neu 24.7, Becton Dickinson, San Jose, Calif., USA) labeled with phycoerythrin was used to quantify human cells by cytofluorometric analysis. Real-Time PCR was performed on genomic DNA extracted with 10 mM Tris-HCl buffer pH 8.3 containing 50 mM KCl, 2.5 mM MgCl2, 0.01% gelatin, 0.45% igepal, 0.45% tween 20 and 120 μg/ml proteinase K (all reagents from Sigma, Milan, Italy) by an overnight incubation at 56° C. followed by […] incubation at 95° C. to inactivate the proteinase K. A sequence of the α-satellite region of the human chromosome 17 was amplified. […]

`Nc1cc(C(F)(F)F)c(-c2cc(N3CCOCC3)nc(N3CCOCC3)n2)cn1` [Compound A, 5-(2,6-di-morpholin-4-yl-pyrimidin-4-yl)-4-trifluoromethyl-pyridin-2-ylamine]: the “penetration of the blood-brain barrier” value in data set [1] is “excellent penetration”. In data set [2] (37 treatments, HER-2-positive cells in dissociated brain (FIG. 2B)), the “inhibition in the number of human cells in the brain, HER-2 flow cytometry” value is > 90%. Besides, the “inhibition in the number of human cells in the brain, human-specific qPCR” value in data set [2] (37 treatments, brain metastatic burden by qPCR (FIG. 2A)) is on record as > 90%. The “number of bone metastases decreased” value in data set [2] (37 treatments, visual count of metastatic sites per mouse (FIG. 2C)) turned out to be 67%. Besides, the “growth of 453-EGFP in heavily colonized organs (brain and lungs)” value in data set [2] (brain and lungs (FIG. 1B-C)) is reported as “strongly inhibited”. For the same compound, in data set [2] (brain, bone marrow and liver, p<0.05 at least, Fisher's exact test (FIG. 1A)), the “incidence of metastases in different sites” value is on record as “a sizeable proportion of mice were metastasis-free; also recorded: significant inhibition”. The “reduction of the metastatic burden” value in data set [2] (different target organs) was “highly significant and widespread reduction”.
